Consider eight molecules from patent publication US12358954B2, “Capsid-modified rAAV vector compositions and methods therefor” (priority 2012, dated 2025).

One assay has as its system K562 cells. The experiment in a line: AAV6 transduction of K562 cells after enzyme / inhibitor treatment. In kind it is cell-based, human. The text has this: More recently, Denard et al. reported that galectin-3-binding protein in human sera agglutinates AAV6 vectors, which results in decreased transduction efficiency of these vectors. […] The identity of the putative receptor for AAV6 vectors in human CD34^+ cells remains elusive, and additional studies are warranted. […] The implication is that AAV6 uses a protein rather than a lipid on K562 cells for binding and entry into these cells. In addition, because AAV6 is known to have evolved from recombination between AAV1 and AAV2, and because AAV2 uses heparan sulfateproteoglycan (HSPG) as the primary cellular receptor, the level of HSPG expression on K562 cells surface was examined by FACS. […] The effect of inhibitors of O-linked and N-linked glycosylation was also evaluated on the transduction efficiency of AAV6 vectors in K562 cells.

For a further assay, the system named is T47D+hHGFR cells. The experiment in a line: AAV vector transduction of T47D+hHGFR cells. Format: cell-based, human. The text has this:
(§1) Cell Lines and Cultures. Human cervical cancer (HeLa) and hepatocellular carcinoma (Huh7) cell lines were purchased from American Type Culture Collection (Manassas, Va., USA), and maintained in complete DMEM medium (Mediatech, Inc., Manassas, Va., USA) supplemented with 10% heat-inactivated fetal bovine serum (FBS, Sigma-Aldrich Co.), 1% penicillin and streptomycin (P/S, Lonza, Inc.). A newly established human hepatoblastoma (Hep293TT) cell line (Chen et al., 2009) was maintained in complete RPMI medium 1640 (Invitrogen, Inc.) supplemented with 15% heat-inactivated FBS (Sigma-Aldrich Co.), 1% penicillin and streptomycin (P/S, Lonza, Inc.). Cells were grown as adherent cultures in a humidified atmosphere at 37° C. in 5% CO2 and were sub-cultured after treatment with trypsin-versene mixture (Lonza, Inc.) for 2-5 min at room temperature, washed and re-suspended in complete medium. […]
(§2) Human HGFR is required for AAV3 infectivity. […] Equivalent numbers of T47D and T47D+hHGFR cells were transduced with various multiplicities-of-infection (MOI) of self-complementary (sc) AAV3-CBAp-EGFP vectors under identical conditions and transgene expression was determined 72 hr post-transduction.

Assay [1] concerns non-canonical NF-κB pathway (p100, p52). The assay is described as follows: Western blot of NF-κB pathway components in HeLa cells. Particulars: in the presence of VP16. In kind it is cell-based, human. The text has this: Western Blot Analyses. Homogenized lysates of the cell pellets from ˜2×10^6 HeLa cells or DCs, mock or pre-treated with the optimal concentration of NF-κB activators or inhibitors were used for sample preparation. Whole cell proteins were isolated using the RIPA lysis buffer (Sigma-Aldrich Co.) and cytoplasmic and nuclear proteins were extracted using a commercial kit (NE-PER Extraction Reagent Kit, Pierce Biotech, Rockford, Ill., USA) as per the manufacturer's protocol in the presence of a protease inhibitor cocktail (Halt™ Protease Inhibitor Cocktail Kit, Pierce Biotech). The protein extracts were boiled for 5 min under reducing conditions [SDS-sample buffer containing 62.5 mM Tris-HCl (pH 6.8 at 25° C.), 2% wt./vol. SDS, 10% glycerol, 50 mM DTT, 0.01% wt./vol. bromo-phenol blue (Cell Signaling Technology, Inc.)] and stored at −86° C. until further analysis. Equal volumes of samples were run on 4-15% SDS-PAGE (Bio-Rad, Hercules, Calif., USA). […] The intensity of the protein bands was measured with Adobe Photoshop CS3 Software® and normalized to proteins levels from the housekeeping gene products used as loading controls.
On the technique in general: Immunoblotting shows a protein as a band on a membrane.

Assay [2] concerns primary human dendritic cells. The experiment in a line: AAV-EGFP transduction of primary human dendritic cells with NF-κB modulators (flow cytometry). In kind it is cell-based. The procedure:
(§3) Recombinant AAV Vector Transduction Assays in Vitro. Optimal concentration of NF-κB-modulating compounds was determined by a cell viability assay with tenfold-dilutions from the IC50 or were used as described previously (Wu and Miyamoto, 2008; Kumar et al., 2008). VP16 or Bay11 (10 or 5 μM, final concentration), and PDTC (50 or 25 μM final concentration) were used either alone or in activator/inhibitor combinations. For transduction experiments, approximately 1×10^5 HeLa cells were either pre-treated with these compounds 24 hrs prior to vector infection. Cells were transduced with 500 or 2,000 vector genomes (vgs) per cell of recombinant WT-AAV or TM-AAV vectors encoding the EGFP transgene as described previously (Markusic et al., 2010). After 7 days of culture, primary human dendritic cells were transduced with AAV vectors at 2000 vgs/cell and incubated for 48 hrs. Transgene expression was assessed as total area of green fluorescence (pixel^2) per visual field (mean±SD), or by flow cytometry. Analysis of variance (ANOVA) was used to compare between test results and the control and they were determined to be statistically significant.
Cells, Antibodies and Chemicals. […]
In general terms: Flow cytometry measures light scatter and fluorescence of single cells or particles in a stream.

Assay [3] concerns primary human dendritic cells. The experiment in a line: FACS analyses of markers of maturation (CD83, CD86) of primary human dendritic cells. In kind it is cell-based. On the procedure:
Cells, Antibodies and Chemicals. HeLa cells were obtained from the American Type Culture Collection (Rockville, Md., USA) and maintained as monolayer cultures in Iscove's-modified Dulbecco's medium (IMDM, Invitrogen, Inc., Carlsbad, Calif., USA) supplemented with 10% newborn calf serum (NCS) (Lonza, Inc., Basel, SWITZERLAND) and antibiotics. Leukapheresis-derived PBMCs were resuspended in serum-free AIM-V medium (Lonza, Inc.) and semi-adherent cell fractions were incubated in serum-free AIM-V medium supplemented with recombinant human IL-4 (500 U/mL) and GM-CSF (800 U/mL) (R&D Systems, MN, USA). Cells were treated with NF-κB modulators ([…]), and cytokines cocktail including 10 ng/mL TNF-α, 10 ng/mL IL-1, 10 ng/mL IL-6, […] (R&D Systems) for 20 hr. Cells were harvested, characterized to ensure they met the typical phenotype of mature DCs (CD83, RPE, murine IgG1, CD86, FITC, murine IgG1; Invitrogen, Inc.). All primary and secondary antibodies were purchased from Cell Signaling Technology, Inc. (Danvers, Mass., USA) or Santa Cruz Biotechnology, Inc (Santa Cruz, Calif., USA). NF-kB activators [Etoposide (VP16), Aphidicolin, Hydroxyurea (HU)] and NF-kB inhibitors [Bay11-7082 (Bay11), Pyrrolidine dithiocarbamate (PDTC)] were purchased from Sigma-Aldrich Co. (St. Louis, Mo., USA). These compounds were re-suspended in either DMSO (Sigma-Aldrich Co.) or in sterile, DNAase-, RNAase-free water (Invitrogen, Inc.) as per the manufacturer's instructions.

The next assay deals with T47D cells. The assay is described as follows: AAV3 vector transduction of T47D cells. In kind it is cell-based, human. Particulars: 1 μM, 2 hr; 10,000 vg/cell.
Excerpt: as §1, §2

For the next assay, the target named is T1, HGFR kinase (Homo sapiens, UniProt P08581).
T1 construct: expressed in transfected cells; host or cells: T47D human breast cancer cells stably transfected with a hHGFR expression plasmid (T47D+hHGFR); parental T47D as control
T1 sequence (P08581 25-1390): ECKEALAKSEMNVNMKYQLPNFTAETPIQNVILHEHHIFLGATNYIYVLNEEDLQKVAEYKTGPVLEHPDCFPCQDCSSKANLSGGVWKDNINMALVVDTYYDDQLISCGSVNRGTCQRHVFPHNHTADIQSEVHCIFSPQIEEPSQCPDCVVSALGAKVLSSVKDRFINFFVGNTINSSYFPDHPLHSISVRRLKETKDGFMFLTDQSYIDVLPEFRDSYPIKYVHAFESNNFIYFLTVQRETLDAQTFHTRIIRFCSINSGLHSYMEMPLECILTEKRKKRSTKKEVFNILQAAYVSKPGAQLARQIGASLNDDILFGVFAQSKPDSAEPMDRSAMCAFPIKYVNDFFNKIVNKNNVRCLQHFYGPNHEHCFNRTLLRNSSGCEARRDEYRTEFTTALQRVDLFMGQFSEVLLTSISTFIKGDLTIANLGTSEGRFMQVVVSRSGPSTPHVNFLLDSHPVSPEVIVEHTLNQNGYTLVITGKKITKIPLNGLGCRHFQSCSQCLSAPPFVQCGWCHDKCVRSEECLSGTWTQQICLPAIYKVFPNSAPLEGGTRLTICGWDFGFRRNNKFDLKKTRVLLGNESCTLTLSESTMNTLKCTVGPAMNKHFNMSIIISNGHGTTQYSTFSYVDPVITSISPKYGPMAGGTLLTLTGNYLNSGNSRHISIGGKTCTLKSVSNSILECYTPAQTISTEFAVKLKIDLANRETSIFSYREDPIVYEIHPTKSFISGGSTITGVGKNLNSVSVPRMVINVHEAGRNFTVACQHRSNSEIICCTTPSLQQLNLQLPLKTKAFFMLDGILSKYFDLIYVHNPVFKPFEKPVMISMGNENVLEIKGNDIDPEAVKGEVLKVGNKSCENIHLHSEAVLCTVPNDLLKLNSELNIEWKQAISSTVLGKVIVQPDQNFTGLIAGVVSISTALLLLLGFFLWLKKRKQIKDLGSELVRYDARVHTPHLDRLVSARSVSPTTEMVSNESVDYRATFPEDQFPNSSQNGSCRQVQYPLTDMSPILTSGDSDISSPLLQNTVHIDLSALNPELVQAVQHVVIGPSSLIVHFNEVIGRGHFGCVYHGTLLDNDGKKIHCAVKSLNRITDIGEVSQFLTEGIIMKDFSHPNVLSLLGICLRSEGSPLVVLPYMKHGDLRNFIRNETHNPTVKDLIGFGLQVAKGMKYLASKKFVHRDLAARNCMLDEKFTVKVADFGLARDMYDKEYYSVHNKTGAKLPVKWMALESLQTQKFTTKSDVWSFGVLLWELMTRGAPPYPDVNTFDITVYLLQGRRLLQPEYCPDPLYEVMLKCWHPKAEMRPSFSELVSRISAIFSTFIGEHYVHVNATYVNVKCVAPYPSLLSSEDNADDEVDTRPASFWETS
The experiment in a line: Western blot of HGFR phosphorylation and downstream signaling. Format: cell-based. Particulars: T47D+hHGFR cells.

For assay [4], the system named is HeLa cells. The experiment in a line: Recombinant AAV2 vector transduction assay in vitro (EGFP imaging). Format: cell-based, human. On the procedure: Recombinant AAV2 Vector Transduction Assays in Vitro. Approximately 1×10^5 HeLa cells were used for transductions with recombinant AAV2 vectors. The transduction efficiency was measured 48-hr post-transduction by EGFP imaging using fluorescence microscopy. Images from three to five visual fields were analyzed quantitatively by ImageJ analysis software (NIH, Bethesda, Md., USA). Transgene expression was assessed as total area of green fluorescence (pixel^2) per visual field (mean±SD). Analysis of variance (ANOVA) was used to compare between test results and the control and they were determined to be statistically significant.
The transduction efficiency of each of the tyrosine-mutant vectors was analyzed and compared with the WT scAAV2-EGFP vector in HeLa cells in vitro under identical conditions. […] Specifically, the transduction efficiency of Y444F, Y500F, Y730F vectors was ˜8- to 11-fold higher than the WT vector.
In a second study, HeLa cells, either mock-treated or treated with Tyr23, a specific inhibitor of EGFR-PTK, or MG132, a proteasome inhibitor, both known to increase the transduction efficiency of AAV vectors, were mock-infected or infected with the WT or Y730F scAAV2-EGFP vectors.

The test system of a further assay is Hep293TT cells. The experiment in a line: AAV3 vector transduction assay in Hep293TT cells. In kind it is cell-based, human. On the procedure: (§4) AAV Vector Transduction Assays. Huh7 or HeLa cells were seeded in 96-well plates at a concentration of 5,000 cells per well in complete DMEM medium. AAV infections were performed in serum- and antibiotic-free DMEM medium. Hep293TT cells were seeded in 96-well plates at a concentration of 10,000 cells per well in complete RPMI medium. The infections were performed in serum- and antibiotic-free RPMI medium. The expression of EGFP was analyzed by direct fluorescence imaging 72 hrs' post-transduction.

Assay [5] relates to HeLa cells. The experiment in a line: scAAV2 transduction of HeLa cells with MG132 or Tyr23 (positive control). In kind it is cell-based, human. Particulars: MG132 5 μM; Tyr23 200 μM. On the procedure: as §4
Proteasome Inhibitors Increase the Transduction Efficiency of AAV3 Vectors. […] To evaluate whether MG132 can also improve AAV3 trafficking in target cells, Huh7, a well-established human hepatocellular carcinoma cell line (Nakabayashi et al., 1982), and Hep293TT, a recently established human hepatoblastoma cell line (Chen et al., 2009), were either mock-treated or treated with increasing concentrations of MG132. […] Transgene expression was determined by fluorescence microscopy 72 hrs post-transduction.
Previous studies have also shown that inhibition of EGFR-PTK signaling by Tyrphostin 23 (Tyr23), a specific inhibitor of EGFR-PTK (May et al., 1998), modulates the Ub/proteasome pathway, which in turn, facilitates intracellular trafficking and transgene expression mediated by AAV2 vectors (Zhong et al., 2007). […] Transgene expression was determined 72 hr post-transduction.

Assay [6] relates to HeLa cells. The experiment in a line: AAV-EGFP transduction of HeLa cells in the presence of NF-κB modulators. In kind it is cell-based, human. As to conditions: HeLa, scAAV-EGFP. On the procedure:
as §3

The mark [7] stands for this setting: Mature DCs + AAV + Cytokines + modulator.

“Also recorded” adds a separate entry of the source.

Procedure for HGFR kinase: Cells were harvested and disrupted in a radio-immunoprecipitation assay (RIPA) lysis buffer (50 mM Tris-HCl, pH 8.0, 150 mM NaCl, 0.1% SDS, 1% NP-40, 0.25% sodium deoxycholate and 1 mM EDTA with protease inhibitor cocktail, 1 mM NaF and 1 mM Na3VO4). Total protein concentration was measured using a Bradford reagent (Bio-Rad) and equal amounts (50 μg) of whole cell lysates were resolved by SDS-PAGE. After electrophoresis, samples were electro-transferred to a nitrocellulose membrane (Bio-Rad), probed with relevant primary antibodies at 4° C. overnight, incubated with horseradish peroxidase-conjugated secondary antibodies (Jackson ImmunoResearch, West Grove, Pa., USA), and detected with an enhanced chemi-luminescence substrate (Amersham). […]
To examine whether inhibition of the HGFR kinase led to alterations in the phosphorylation status of specific cellular proteins involved in the downstream signaling pathway total and phosphorylation levels of the HGFR protein in both T47D and T47D+hHGFR lysates were determined following a 2-hr drug-incubation period. Activation of signaling pathways downstream from HGFR kinase, ERK1/2 and Akt, were analyzed using phosphorylation-specific antibodies.

In the case of phospholipase A2, the “effect on AAV6 vector-mediated transduction of K562 cells” value (“effect” for short) with K562 cells was “no significant change”.
In the case of hHGF: human hepatocyte growth factor, the “AAV3 vector-mediated transduction in the presence of hHGF” value with T47D+hHGFR cells (5 μg/mL hHGF, 2,000 vgs/cell) is “completely blocked”.
For `COc1cc([C@@H]2c3cc4c(cc3[C@@H](O[C@@H]3O[C@@H]5CO[C@@H](C)O[C@H]5[C@H](O)[C@H]3O)[C@H]3COC(=O)[C@H]23)OCO4)cc(OC)c1O` [VP16, Etoposide], the “increase in cytosolic p100 and nuclear p52” value in assay [1] was 3- to 6 fold. For the same molecule, the “EGFP expression increase compared with scAAV vector-transduced DCs” value in assay [2] was about 20 fold. The “maturation of DCs (CD83, CD86)” value in assay [3] is given as “not able to induce maturation”. Further, the results for the “Geometric means of levels of expression in cells expressing CD83” value in assay [3] (DCs without cytokines) and in [3] (setting [7]) were 16.48 and 19.92, respectively. In addition, the figures for the “Geometric means of levels of expression in cells expressing CD86” value in assay [3] (DCs without cytokines) and in assay [3] (setting [7]) were 13.70 and 21.92, respectively.
On to heparin, for which the “effect” value with K562 cells is listed as “could not be inhibited”.
Consider `CCOc1ccn(-c2ccc(F)cc2)c(=O)c1C(=O)Nc1ccc(Oc2ccnc(N)c2Cl)c(F)c1` [BMS-777607, N-(4-(2-amino-3-chloropyridin-4-yloxy)-3-fluorophenyl)-4-ethoxy-1-(4-fluorophenyl)-2-oxo-1,2-dihydropyridine-3-carboxamide], for which the AAV3 infectivity entry in the assay on T47D+hHGFR cells (1 μM, 2 hr, 10,000 vg/cell) is reported as “significantly enhanced”; in the assay on T47D cells, “no effect”. Moreover, the “expression of phosphorylated AKT and ERK1/2” value on HGFR kinase is “no effect”. Further, the “phosphorylation of HGFR” value at HGFR kinase (2-hr incubation) is recorded as “completely blocked”.
With `N#CC(C#N)=Cc1ccc(O)c(O)c1` [Tyr23, Tyrphostin 23], in the assay with HeLa cells [4], the “increase in transduction efficiency of WT scAAV2-EGFP by pretreatment” value is listed as about 9 fold. Moreover, the “amounts of internalized viral DNA in presence or absence of inhibitor” value in the assay on Hep293TT cells was “no significant difference”. Further, in the assay on Hep293TT cells (2 hr treatment), the “transduction efficiency of scAAV3 vectors after treatment” value was “significant increase”. The “transduction efficiency of scAAV2 vectors after pretreatment” value in the assay with HeLa cells [5] is recorded as “significant increase”.
As to `S=C(S)N1CCCC1` [PDTC, Pyrrolidine dithiocarbamate], the “AAV vector-mediated EGFP expression, fold augmentation” value in the assay on HeLa cells [6] is “had no effect; also recorded: no noticeable effect”.
For the molecule tunicamycin, the “effect” value with K562 cells is given as “markedly reduced”.
